Measured values reported in patent US9259001B2, “5-phenyl-substituted N-(tetrazol-5-yl) aryl carboxylic acid amides and N-(triazol-5-yl) aryl carboxylic acid amides, and use thereof as herbicides” (BAYER INTELLECTUAL PROPERTY GMBH, priority 2011, dated 2016).

Columns and labels:
Assay in all cases: Comparative tests by the post-emergence method
Format in all cases: in vivo
[1] = tested on: Veronica persica
Procedure: (§1) Seeds of monocotyledonous and dicotyledonous weed and crop plants are placed in sandy loam in wood-fiber pots, covered with soil and cultivated in a greenhouse under good growth conditions. 2 to 3 weeks after sowing, the test plants are treated at the one-leaf stage. The inventive compounds formulated in the form of wettable powders (WP) or as emulsion concentrates (EC) are then sprayed onto the green parts of the plants as an aqueous suspension or emulsion at a water application rate of 600 to 800 I/ha (converted) with addition of 0.2% wetting agent. After the test plants have been left to stand in the greenhouse under optimal growth conditions for about 3 weeks, the action of the formulations is assessed visually in comparison to untreated controls (herbicidal action in percent (%): 100% activity=the plants have died, 0% activity=like control plants). Here, the compounds Nos. 1-02, 1-03, 1-05, 1-06, 1-14, 1-15, 2-01, 2-02, 2-03, 2-04, 2-05, 2-06, 2-16, 2-17, 2-18, 2-19, 2-20, 2-21, 2-22, 2-23, 2-24, 2-25, 2-26, 2-27, 2-28, 2-29, 2-30, 2-31, 2-33, 2-34, 2-35, 2-39, 2-40, 2-41, 2-43, 2-44, 2-45, 2-46, 2-47, 2-48, 2-49, 2-50, 2-51, 2-52, 2-53, 2-60, 2-61, 2-62, 2-63, 2-64, 2-65, 2-69 and 2-83 each show, at an application rate of 80 g/ha, an activity of at least 80% against Abutilon theophrasti and Veronica persica. The compounds Nos. 1-14, 2-32, 2-42, 2-66, 2-67, 2-69 and 2-83, at an application rate of 80 g/ha, each show an activity of at least 80% against Amaranthus retroflexus and Stellaria media.
(§2) For comparative tests, the compound No. 1-15 according to the invention and the compounds No. 118 and No. 119 known from EP 0 049 071 A1 were tested by the post-emergence method at various dosages against a number of harmful plants.

[2] = tested on: Pharbitis purpureum
Procedure: as §1, §2
(§3) ABUTH Abutilon theophrasti PHBPU Pharbitis purpureum

[3] = tested on: Abutilon theophrasti
Procedure: as §1, §2, §3

Row | Structure (SMILES) | Herbicidal action against VERPE ([1]; dosage 5 g/ha) [%] | Herbicidal action against VERPE ([1]; dosage 20 g/ha) [%] | Herbicidal action against VERPE ([1]; dosage 80 g/ha) [%] | Herbicidal action against PHBPU ([2]; dosage 5 g/ha) [%] | Herbicidal action against PHBPU ([2]; dosage 20 g/ha) [%] | Herbicidal action against PHBPU ([2]; dosage 80 g/ha) [%] | Herbicidal action against ABUTH ([3]; dosage 5 g/ha) [%] | Herbicidal action against ABUTH ([3]; dosage 20 g/ha) [%] | Herbicidal action against ABUTH ([3]; dosage 80 g/ha) [%]
1 | CCC(C)(CC)c1nnc(NC(=O)c2c(OC)cccc2OC)[nH]1 [Compound No. 118, N-[5-(1-ethyl-1-methylpropyl)-4H-1,2,4-triazol-3-yl]-2,6-dimethoxybenzamide] | 0 | 0 | 0 | 0 | 0 | 0 | 0 | 0 | 0
2 | COc1cccc(OC)c1C(=O)Nc1nc[nH]n1 [Compound No. 119, N-(1H-1,2,4-triazol-3-yl)-2,6-dimethoxybenzamide] | 0 | 0 | 0 | 0 | 0 | 0 | 0 | 0 | 0
3 | Cc1cc(C(=O)Nc2ncnn2C)c(Cl)cc1S(C)(=O)=O [No. 1-15] | 40 | 80 | 80 | 80 | 80 | 80 | 90 | 90 | 90
